For seven compounds, Ki results are on record in ChEMBL document CHEMBL1152219, “Synthesis and use of sulfonamide-, sulfoxide-, or sulfone-containing aminoglycoside-CoA bisubstrates as mechanistic probes for aminoglycoside N-6'-acetyltransferase” (Bioorg Med Chem Lett, 2008).

A short description of the assay: Inhibition of aminoglycoside N-6'-acetyltransferase Ii.

For `CC(C)(COP(=O)(O)OP(=O)(O)OC[C@H]1O[C@@H](n2cnc3c(N)ncnc32)[C@H](O)[C@@H]1OP(=O)(O)O)[C@@H](O)C(=O)NCCC(=O)NCCSCC(=O)NC[C@H]1O[C@H](O[C@H]2[C@H](O)[C@@H](O)[C@H](N)C[C@@H]2N)[C@H](N)[C@@H](O)[C@@H]1O`, affinity was put at a Ki of 76 nM. In other words, the double-digit nanomolar range.

As for `CC(C)(COP(=O)(O)OP(=O)(O)OC[C@H]1O[C@@H](n2cnc3c(N)ncnc32)[C@H](O)[C@@H]1OP(=O)(O)O)[C@@H](O)C(=O)NCCC(=O)NCCSCCC(=O)NC[C@H]1O[C@H](O[C@H]2[C@H](O)[C@@H](O)[C@H](N)C[C@@H]2N)[C@H](N)[C@@H](O)[C@@H]1O`, affinity was put at a Ki of 43 nM.

As for `CC(C)(COP(=O)(O)OP(=O)(O)OC[C@H]1O[C@@H](n2cnc3c(N)ncnc32)[C@H](O)[C@@H]1OP(=O)(O)O)[C@@H](O)C(=O)NCCC(=O)NCCSCCS(=O)(=O)NC[C@H]1O[C@H](O[C@H]2[C@H](O)[C@@H](O)[C@H](N)C[C@@H]2N)[C@H](N)[C@@H](O)[C@@H]1O`, the inhibitory constant (Ki) – broadly, a dissociation constant, usually derived from enzyme kinetics or from competition with a known ligand – came to 1600 nM.

Compound `CC(C)(COP(=O)(O)OP(=O)(O)OC[C@H]1O[C@@H](n2cnc3c(N)ncnc32)[C@H](O)[C@@H]1OP(=O)(O)O)[C@@H](O)C(=O)NCCC(=O)NCC[S+]([O-])CC(=O)NC[C@H]1O[C@H](O[C@H]2[C@H](O)[C@@H](O)[C@H](N)C[C@@H]2N)[C@H](N)[C@@H](O)[C@@H]1O` (some centres not stated) returned a Ki of 60 nM.

In the case of `CC(C)(COP(=O)(O)OP(=O)(O)OC[C@H]1O[C@@H](n2cnc3c(N)ncnc32)[C@H](O)[C@@H]1OP(=O)(O)O)[C@@H](O)C(=O)NCCC(=O)NCC[S+]([O-])CCC(=O)NC[C@H]1O[C@H](O[C@H]2[C@H](O)[C@@H](O)[C@H](N)C[C@@H]2N)[C@H](N)[C@@H](O)[C@@H]1O` (some centres not stated), the inhibition constant (Ki) was 2000 nM.

The compound `CC(C)(COP(=O)(O)OP(=O)(O)OC[C@H]1O[C@@H](n2cnc3c(N)ncnc32)[C@H](O)[C@@H]1OP(=O)(O)O)[C@@H](O)C(=O)NCCC(=O)NCCS(=O)(=O)CC(=O)NC[C@H]1O[C@H](O[C@H]2[C@H](O)[C@@H](O)[C@H](N)C[C@@H]2N)[C@H](N)[C@@H](O)[C@@H]1O` showed a Ki of 270 nM.

With `CC(C)(COP(=O)(O)OP(=O)(O)OC[C@H]1O[C@@H](n2cnc3c(N)ncnc32)[C@H](O)[C@@H]1OP(=O)(O)O)[C@@H](O)C(=O)NCCC(=O)NCCS(=O)(=O)CCC(=O)NC[C@H]1O[C@H](O[C@H]2[C@H](O)[C@@H](O)[C@H](N)C[C@@H]2N)[C@H](N)[C@@H](O)[C@@H]1O`, the Ki was 90 nM.
